From US20250179057A1, “MEK IMMUNE ONCOLOGY INHIBITORS AND THERAPEUTIC USES THEREOF” (Immuneering Corporation, priority 2022, published 2025) come the findings set out here.

In series [1] the test system is phospho-ERK in A549 (KRAS G12S) cells. In words: Cell-based pERK (pERK:tERK) in A549 cells. Set-up: A549-pERK 10 uM, 2 h: unit not given here. The following applies: for pERK:tERK (10 nM 2 h A549): Phospho-ERK Screen in A549 (KRAS G12S), head 10 nM 2 h, title 10 μM for 2 hours; for A549-pERK (10 nM, 2 h): phospho- to total protein ratio normalized to DMSO control (Table 9); for IC50: A549, 12-point dose; for activity at 0.01 µM: A549, 2 h, read-out: A549-pERK (10 nM, 2 h). Summed up: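 A549 cells in 6-well plates were treated with compound at a predetermined concentration for 2 hours at 37 °C. Lysates were then normalised by Bradford protein assay to 1 mg/mL for pERK. Phospho-ERK and total ERK were detected by Western blot with IRDye secondary antibodies and quantified by LI-COR Odyssey imaging.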

Series [2] in a line: Plasma stability, rat plasma (Wistar Han / wistar hannover; Table 5 head SD Rat). As to conditions: wistar hannover rat plasma, 2 μM, anti-coagulant K2-EDTA; for half-life at 2 μM: pH 7.4, read-out: T1/2; for % Remaining at T120: 120 min. It is filed as in vitro ADME. As to the method:
(§1) Individual stock solutions of propantheline and lovastatin were prepared at 10 mM in DMSO and were further diluted to 2 mM with DMSO.
(§2) Frozen matrices (Balb/c mouse, Wistar Han rat, Beagle dog, and human plasma containing K2EDTA as anti-coagulant) were thawed and centrifuged at 3100 rpm for 10 minutes at 4° C. to remove particulates. The lipid layer was then removed, and the supernatant was transferred to a new tube without disturbing the pellet. After the matrices were incubated at 37° C. for at least 10 minutes, the pH of each matrix was adjusted to pH 7.4, using 10% phosphoric acid or 1N sodium hydroxide as necessary. Test and control article stock solutions were spiked (2 μL) into matrix (1.998 mL) and mixed to final assay concentration of […]. Duplicate 30-μL aliquots of spiked plasma were transferred to matrix tubes in 96-well plate immediately after spiking for timepoints of 0, 30, 60, 120, 240, and 360 minutes. These tubes were then incubated at 37° C. with shaking and at each timepoint, the corresponding tubes containing samples were quenched with 180 μL of cold acetonitrile containing the internal standards. The quenched samples were vortex-mixed briefly and stored refrigerated. After the final time point (360 minutes), the plates with all quenched samples were vortex-mixed for 10 minutes and then centrifuged at 3100 rpm for 10 minutes at 4° C. to sediment the precipitated protein. The supernatant (50 μL) was transferred to a clean 96-well plate and diluted with 100 μL of water. The plates were stored refrigerated until analysis.
(§3) Data Analysis: Peak area ratios for IS-normalized test article and control article counts were used to calculate the percent remaining relative to the time zero (T0) value. As appropriate, results were plotted and further analyzed to calculate half-life (T1/2) values.
(§4) Mean peak area ratios were used to calculate the % remaining relative to the T0 value:
(§5) In this study, human, cynomolgus monkey, beagle dog, wistar hannover rat, and balb/c plasma stability was determined. Table 28 describes the results of the human plasma stability at 2 μM concentration and anti-coagulant K2-EDTA from 10 to 120 min. Table 29 describes the results of the cynomolgus monkey plasma stability at 2 μM concentration and anti-coagulant K2-EDTA. Table 30 describes the results of the beagle dog plasma stability at 2 μM concentration and anti-coagulant K2-EDTA. Table 31 describes the results of the wistar hannover rat plasma stability at 2 μM concentration and anti-coagulant K2-EDTA. Table 32 describes the results of the balb/c plasma stability at 2 μM concentration and anti-coagulant K2-EDTA.

The nature of the next series: PAMPA (pH 7.4). As to conditions: for Papp at 4 h, 50 μM: PAMPA. It counts as in vitro ADME. For orientation: In PAMPA a lipid-coated filter parts donor from acceptor wells.
Series [3] can be described thus: Plasma stability, cynomolgus monkey plasma (K2-EDTA). It counts as in vitro ADME. As to conditions: for % Remaining at T120 / T1/2: 2 μM, anti-coagulant K2-EDTA; for % Remaining at T120: 120 min; for half-life at 2 μM: plasma (K2EDTA), pH 7.4, anti-coagulant K2-EDTA. The protocol: as §1, §2, §3, §4, §5

Structures can show the parent of a compound that is named as a salt.

Procedure for PAMPA (pH 7.4): Each stock solution was diluted to 50 M in pH 7.4 Prisma HT buffer (pION) and 200 μl was added to each well of the donor plate in triplicate. The polyvinylidene fluoride (PVDF, 0.45 μm) filter membrane on the acceptor plate was coated with 5 μl gastrointestinal tract lipid formulation (GIT-0, pION) and to each well of the acceptor plate, 200 μl of acceptor sink buffer (pION) was added. The acceptor filter plate was then carefully placed on top of the donor plate to form a sandwich. The sandwich was incubated at 25° C. for 4 h without stirring. UV-vis spectra of the solutions in the blank, reference, acceptor and donor plates were measured using a microplate reader (Tecan Infinite 200PRO M Nano Plus). Permeability values were calculated using the PAMPA explorer software v.

The Papp is a coefficient for how fast a substance crosses the barrier. On to `CNS(=O)(=O)Nc1cccc(Cc2c(CN3CCNCC3)c3cc(Cl)c(OC(=O)N(C)C)cc3oc2=O)c1Cl` [Compound 256, 6-chloro-3-(2-chloro-3-((N-methylsulfamoyl)amino)benzyl)-2-oxo-4-(piperazin-1-ylmethyl)-2H-chromen-7-yl dimethylcarbamate hydrochloride], for which, in series [1], the “pERK:tERK (10 nM 2 h A549)” value amounted to 14. In series [2], the half-life at 2 μM stood at 179 h and the “% Remaining at T120” value was 97.2%. The compound further had an apparent permeability (Papp) at 4 h, 50 μM in the series “PAMPA (pH 7.4)” (pH = 7.4 (Table 14)) of 40 nm/s. Besides, in series [3], the “% Remaining at T120” value is 95.0% and the half-life at 2 μM worked out at 28.5 h.
Regarding `CNS(=O)(=O)Nc1cccc(Cc2c(CN(C)C)c3ccc(OC(=O)N(C)C)cc3oc2=O)c1Cl` [Compound 274, 3-(2-chloro-3-((N-methylsulfamoyl)amino)benzyl)-4-((dimethylamino)methyl)-2-oxo-2H-chromen-7-yl dimethylcarbamate], the half-life at 2 μM in series [2] is 42.3 h; in series [3], over 2 h. The “% Remaining at T120” value is 97.7% in series [2] and 104.5% in series [3].
In the case of `CNS(=O)(=O)Nc1nccc(Cc2c(CN(C)C)c3ccc(OC(=O)N(C)C)cc3oc2=O)c1F` [Compound 124], the “A549-pERK (10 nM, 2 h)” value in series [1] (2 h) worked out at 94.6. In addition, in series [2], the “T1/2” value was over 2 h and the “% Remaining at T120” value came out at 100.3%. For the same compound, in series [3], the “T1/2” value came out at 21.32 h and the “% Remaining at T120” value amounted to 95.9%.
Usually IC50 stands for the concentration needed to halve the response being measured. Take `Cn1cnc2c(F)c(Nc3ccc(Br)cc3Cl)c(C(=O)NOCCO)cc21` [Reference-1, Selumetinib]: in series [1], the “A549 pERK:tERK ratio [10 nM; 2 hr]” value is listed as 0.56. Further, inhibition in series [1] (Homo sapiens) was half-maximal at 7.2 nM (IC50). In “PAMPA (pH 7.4)” (pH = 7.4), the apparent permeability coefficient (Papp) at 4 h, 50 μM worked out at 290 nm/s.
As for `CCN(C)Cc1c(Cc2cccc(NS(=O)(=O)NC)c2Cl)c(=O)oc2cc(OC(=O)N(C)C)ccc12` [Compound 245, 3-(2-chloro-3-((N-methylsulfamoyl)amino)benzyl)-4-((ethyl(methyl)amino)methyl)-2-oxo-2H-chromen-7-yl dimethylcarbamate], the activity at 0.01 µM in series [1] (Homo sapiens) worked out at 68.8%. In addition, the “pERK:tERK (10 nM 2 h A549)” value in series [1] is listed as 69. Besides, in series [2], the half-life at 2 μM was 32.2 h and the “% Remaining at T120” value was 96.6%. Further, the apparent permeability coefficient (Papp) at 4 h, 50 μM in “PAMPA (pH 7.4)” (pH = 7.4 (Table 14)) stood at 530 nm/s. In addition, in series [3], the “% Remaining at T120” value is recorded as 96.5% and the half-life at 2 μM came out at 23 h.
As to `CNS(=O)(=O)Nc1cccc(Cc2c(CN(C)C)c3ccc(OC(=O)N(C)C)cc3oc2=O)c1F` [Compound 9], the “A549-pERK (10 nM, 2 h)” value in series [1] (2 h) is 63.0. Further, in series [1], the “A549 pERK:tERK ratio [10 nM; 2 hr]” value is 0.62, the IC50 was found to be 19.8 nM and the “pERK:tERK (10 nM 2 h A549)” value is 65 (n = 27). The “A549-pERK 10 uM, 2 h” value in series [1] (10 uM, 2 h, phospho- to total protein ratio normalized to DMSO control) was 1.205 (mean, n = 2). Besides, in series [2], the “T1/2” value worked out at 19.67 h and the “% Remaining at T120” value is recorded as 93.4%. The “PAMPA (pH = 7.4; Papp 10^−6 cm/s)” value in “PAMPA (pH 7.4)” (pH = 7.4) is listed as 37 10^−6 cm/s. In addition, in series [3], the “T1/2” value is over 2 h and the “% Remaining at T120” value came out at 110.4%.
As for `CCCS(=O)(=O)Nc1cccc(Cc2c(CN3CCNCC3)c3cc(Cl)c(OC(=O)N(C)C)cc3oc2=O)c1F` [Compound 167], in series [1], the “pERK:tERK (10 nM 2 h A549)” value is listed as 27 (n = 2). Further, the “T1/2” value in series [2] and in series [3] was over 2 h each time. The “% Remaining at T120” value in series [2] worked out at 106.9%; in series [3] it was 117.3%.
`CNS(=O)(=O)Nc1cccc(Cc2c(CN3CCNCC3)c3ccc(OC(=O)N(C)C)cc3oc2=O)c1Cl` [Compound 246, 3-(2-chloro-3-((N-methylsulfamoyl)amino)benzyl)-2-oxo-4-(piperazin-1-ylmethyl)-2H-chromen-7-yl dimethylcarbamate hydrochloride]: in series [1] (Homo sapiens), the activity at 0.01 µM was found to be 19%. In series [1], the “pERK:tERK (10 nM 2 h A549)” value amounted to 19. In addition, in series [2], the half-life at 2 μM was over 2 h and the “% Remaining at T120” value is 99.3%. The compound further registered an apparent permeability coefficient (Papp) at 4 h, 50 μM in the series “PAMPA (pH 7.4)” (pH = 7.4 (Table 14)) of 20 nm/s. Also, in series [3], the “% Remaining at T120” value is 104.5% and the half-life at 2 μM is over 2 h.
In turn, `CNS(=O)(=O)Nc1nccc(Cc2c(C)c3ccc(Oc4ncccn4)cc3oc2=O)c1F` [Reference-2, reference compound] came in with a half-maximal inhibitory concentration (IC50) in series [1] (Homo sapiens) of 7.2 nM. In “PAMPA (pH 7.4)” (pH = 7.4), this compound registered a Papp at 4 h, 50 μM of 290 nm/s.
On to `CCS(=O)(=O)Nc1cccc(Cc2c(CN(C)C)c3ccc(OC(=O)N(C)C)cc3oc2=O)c1F` [Compound 120], for which, in series [1] (2 h), the “A549-pERK (10 nM, 2 h)” value is reported as 77.2. Also, in series [2], the “T1/2” value was 42.68 h and the “% Remaining at T120” value was found to be 96.8%. In series [3], the “T1/2” value is over 2 h and the “% Remaining at T120” value amounted to 107.3%.
Turning to `CNS(=O)(=O)Nc1cccc(Cc2c(CN(C)C)c3cc(F)c(OC(=O)N(C)C)cc3oc2=O)c1F` [Compound 25], the “A549-pERK (10 nM, 2 h)” value in series [1] (2 h) was found to be 66.2. The “pERK:tERK (10 nM 2 h A549)” value in series [1] is 66 (n = 2). In series [2], the “T1/2” value turned out to be 55.43 h and the “% Remaining at T120” value came out at 95.5%. For the same compound, in series [3], the “T1/2” value was over 2 h and the “% Remaining at T120” value is given as 107.3%.
As to `CCN(C)Cc1c(Cc2cccc(NS(=O)(=O)NC)c2F)c(=O)oc2cc(OC(=O)N(C)C)c(F)cc12` [Compound 238], the activity at 0.01 µM in series [1] (Homo sapiens) stood at 68.4%. In series [2], the half-life at 2 μM stood at 29.8 h and the “% Remaining at T120” value came out at 95.5%. In addition, the Papp at 4 h, 50 μM in “PAMPA (pH 7.4)” (pH = 7.4 (Table 14)) amounted to 620 nm/s. Also, in series [3], the “% Remaining at T120” value came out at 101.1% and the half-life at 2 μM is over 2 h.
As for `CNS(=O)(=O)Nc1cccc(Cc2c(CN3CCNCC3)c3cc(F)c(OC(=O)N(C)C)cc3oc2=O)c1F` [Compound 134], the “A549-pERK (10 nM, 2 h)” value in series [1] (2 h) was 33.1. In series [2], the “T1/2” value is 21.15 h and the “% Remaining at T120” value is 95.2%. For the same compound, in series [3], the “T1/2” value came out at 15.8 h and the “% Remaining at T120” value is listed as 93.0%.
As to `CCS(=O)(=O)Nc1cccc(Cc2c(CN3CCNCC3)c3cc(Cl)c(OC(=O)N(C)C)cc3oc2=O)c1Cl` [Compound 257, 6-chloro-3-(2-chloro-3-(ethylsulfonamido)benzyl)-2-oxo-4-(piperazin-1-ylmethyl)-2H-chromen-7-yl dimethylcarbamate hydrochloride], the “pERK:tERK (10 nM 2 h A549)” value in series [1] was determined as 17. In series [2], the half-life at 2 μM was 16.9 h and the “% Remaining at T120” value is on record as 91.5%. The apparent permeability (Papp) at 4 h, 50 μM in “PAMPA (pH 7.4)” (pH = 7.4 (Table 14)) was 80 nm/s. Besides, in series [3], the “% Remaining at T120” value was 98.0% and the half-life at 2 μM worked out at 20.1 h.
